pIC50: −log10 of the molar value.
Key:
[1] = system: VCaP; experiment: Reduction in c-Myc gene expression in AR positive human VCaP cells assessed as reduction in mRNA level measured after 6 hrs by qRT-PCT analysis relative to control; assay type: functional, cell-based; details: dose 0.1-1000 nM
[2] = biological target: T1, Protein cereblon/Histone acetyltransferase p300 (Homo sapiens, UniProt Q09472+Q96SW2); experiment: PROTAC activity at p300/CRBN in human 22Rv1 cells assessed as maximal protein degradation at 1 uM incubated for 4 hrs by Western blot analysis relative to control; assay type: cell-based
Target sequence in this assay (Q09472 2-2414 limits assumed): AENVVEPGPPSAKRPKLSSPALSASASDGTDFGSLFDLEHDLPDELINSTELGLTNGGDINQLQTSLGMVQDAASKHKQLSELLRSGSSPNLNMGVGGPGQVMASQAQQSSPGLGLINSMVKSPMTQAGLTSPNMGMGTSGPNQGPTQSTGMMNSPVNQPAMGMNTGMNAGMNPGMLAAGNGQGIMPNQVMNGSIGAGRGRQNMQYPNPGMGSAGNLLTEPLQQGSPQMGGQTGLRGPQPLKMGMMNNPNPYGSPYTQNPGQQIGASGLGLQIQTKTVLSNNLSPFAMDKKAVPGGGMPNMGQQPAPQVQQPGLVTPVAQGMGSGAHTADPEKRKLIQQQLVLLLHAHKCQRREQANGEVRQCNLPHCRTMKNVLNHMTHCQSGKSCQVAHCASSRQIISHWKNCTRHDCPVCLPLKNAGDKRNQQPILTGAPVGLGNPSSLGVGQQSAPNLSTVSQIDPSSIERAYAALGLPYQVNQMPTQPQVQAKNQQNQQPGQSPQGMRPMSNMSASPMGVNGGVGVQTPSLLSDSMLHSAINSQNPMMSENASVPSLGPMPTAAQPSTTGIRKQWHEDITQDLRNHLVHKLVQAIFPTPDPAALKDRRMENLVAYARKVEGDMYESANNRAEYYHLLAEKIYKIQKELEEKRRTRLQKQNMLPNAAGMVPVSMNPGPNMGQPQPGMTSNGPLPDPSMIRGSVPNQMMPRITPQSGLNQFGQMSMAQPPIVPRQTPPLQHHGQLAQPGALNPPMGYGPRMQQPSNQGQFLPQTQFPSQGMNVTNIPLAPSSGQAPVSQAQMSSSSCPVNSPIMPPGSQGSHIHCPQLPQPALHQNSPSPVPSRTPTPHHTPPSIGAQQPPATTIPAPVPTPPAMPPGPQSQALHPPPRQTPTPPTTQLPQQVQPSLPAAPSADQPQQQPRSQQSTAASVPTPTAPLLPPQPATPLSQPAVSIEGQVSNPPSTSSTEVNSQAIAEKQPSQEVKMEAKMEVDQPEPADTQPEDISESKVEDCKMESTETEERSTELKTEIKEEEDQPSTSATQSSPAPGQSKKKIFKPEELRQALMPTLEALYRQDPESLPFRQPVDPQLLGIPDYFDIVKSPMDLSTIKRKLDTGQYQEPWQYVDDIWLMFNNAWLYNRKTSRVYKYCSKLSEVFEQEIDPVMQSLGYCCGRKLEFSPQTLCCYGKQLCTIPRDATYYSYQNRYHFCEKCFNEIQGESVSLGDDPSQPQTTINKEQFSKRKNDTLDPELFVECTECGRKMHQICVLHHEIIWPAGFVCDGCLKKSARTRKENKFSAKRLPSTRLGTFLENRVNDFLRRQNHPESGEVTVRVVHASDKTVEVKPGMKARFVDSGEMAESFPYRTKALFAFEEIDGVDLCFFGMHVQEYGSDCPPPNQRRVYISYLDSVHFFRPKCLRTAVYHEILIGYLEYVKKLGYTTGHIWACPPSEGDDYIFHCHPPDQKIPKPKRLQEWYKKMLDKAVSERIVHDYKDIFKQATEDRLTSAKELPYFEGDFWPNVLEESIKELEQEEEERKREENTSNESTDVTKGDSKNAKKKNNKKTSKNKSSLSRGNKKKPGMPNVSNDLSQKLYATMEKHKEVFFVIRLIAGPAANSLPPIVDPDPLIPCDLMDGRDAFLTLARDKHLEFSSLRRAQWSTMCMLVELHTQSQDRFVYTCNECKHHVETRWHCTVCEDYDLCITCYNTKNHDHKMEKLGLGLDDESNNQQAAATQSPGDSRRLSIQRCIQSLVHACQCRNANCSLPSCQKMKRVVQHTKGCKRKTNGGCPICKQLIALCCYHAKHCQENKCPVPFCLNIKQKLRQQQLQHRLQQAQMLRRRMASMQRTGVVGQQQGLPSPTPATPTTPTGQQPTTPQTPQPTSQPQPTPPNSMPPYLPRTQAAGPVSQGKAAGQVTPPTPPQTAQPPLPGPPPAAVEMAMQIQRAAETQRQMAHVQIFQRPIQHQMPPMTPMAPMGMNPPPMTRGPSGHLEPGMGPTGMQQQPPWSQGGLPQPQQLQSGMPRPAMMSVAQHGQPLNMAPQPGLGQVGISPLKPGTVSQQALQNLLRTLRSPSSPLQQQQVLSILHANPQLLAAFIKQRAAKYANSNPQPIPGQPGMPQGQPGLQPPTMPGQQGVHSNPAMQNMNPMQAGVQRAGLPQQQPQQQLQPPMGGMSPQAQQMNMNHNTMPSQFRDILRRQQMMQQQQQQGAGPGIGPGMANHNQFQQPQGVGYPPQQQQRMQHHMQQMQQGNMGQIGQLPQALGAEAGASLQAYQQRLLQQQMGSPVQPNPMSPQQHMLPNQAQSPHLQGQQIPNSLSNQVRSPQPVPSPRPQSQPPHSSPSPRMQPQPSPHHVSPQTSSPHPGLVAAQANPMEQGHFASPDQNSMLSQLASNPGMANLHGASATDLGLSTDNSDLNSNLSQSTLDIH
Target sequence in this assay (Q96SW2 whole entry partner): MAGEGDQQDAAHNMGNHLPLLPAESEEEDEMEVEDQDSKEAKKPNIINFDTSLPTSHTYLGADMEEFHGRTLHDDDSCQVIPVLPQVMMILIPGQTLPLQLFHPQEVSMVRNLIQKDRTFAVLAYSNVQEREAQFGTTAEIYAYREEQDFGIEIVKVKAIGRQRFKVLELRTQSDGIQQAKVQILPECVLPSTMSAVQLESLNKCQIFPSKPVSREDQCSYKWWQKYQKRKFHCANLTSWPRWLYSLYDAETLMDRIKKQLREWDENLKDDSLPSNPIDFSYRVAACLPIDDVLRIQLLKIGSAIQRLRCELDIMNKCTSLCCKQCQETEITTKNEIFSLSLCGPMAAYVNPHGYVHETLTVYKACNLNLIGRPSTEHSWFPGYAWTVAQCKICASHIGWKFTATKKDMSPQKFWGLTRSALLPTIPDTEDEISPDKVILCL

[3] = Drug exposure in CB17 SCID mouse xenografted with human VCaP cells assessed compound concentration in tumor at 3 mg/kg, po measured after 3 hrs by LC-MS/MS analysis; assay type: ADME, organism-based, Neoplasm; details: read-out: Drug uptake
[4] = Cmax in male ICR mouse at 3 mg/kg, po measured upto 24 hrs by LC-MS/MS analysis; assay type: ADME, organism-based; details: in vivo
[5] = biological target: T2, Protein cereblon/CREB-binding protein (Homo sapiens, UniProt Q92793+Q96SW2); experiment: In vivo PROTAC activity at CBP/CRBN in human VCaP cells xenografted in SCID mouse assessed as reduction in CBP protein at 1 mg/kg, po measured after 3 hrs; assay type: functional, organism-based; set-up: scale not given: the % may be the effect or the level left
[6] = Half life in male ICR mouse at 1 mg/kg, iv measured upto 24 hrs by LC-MS/MS analysis; assay type: ADME, organism-based; details: in vivo
[7] = biological target: T2, Protein cereblon/CREB-binding protein; experiment: In vivo PROTAC activity at CBP/CRBN in human VCaP cells xenografted in SCID mouse assessed as reduction in CBP protein at 1 mg/kg, po measured after 24 hrs; assay type: functional, organism-based; set-up: scale not given: the % may be the effect or the level left
[8] = biological target: T1, Protein cereblon/Histone acetyltransferase p300; experiment: PROTAC activity at p300/CRBN in AR positive human VCaP cells assessed as maximal protein degradation at 0.15 nM incubated for 4 hrs by Western blot analysis relative to control; assay type: cell-based
Target sequence in this assay (Q09472 2-2414 limits assumed): as the sequence (Q09472 2-2414 limits assumed) above
Target sequence in this assay (Q96SW2 whole entry partner): as the sequence (Q96SW2 whole entry partner) above

[9] = biological target: T1, Protein cereblon/Histone acetyltransferase p300; experiment: PROTAC activity at p300/CRBN in human VCaP cells assessed as maximal protein degradation at 1 uM incubated for 4 hrs by Western blot analysis relative to control; assay type: cell-based
Target sequence in this assay (Q09472 2-2414 limits assumed): as the sequence (Q09472 2-2414 limits assumed) above
Target sequence in this assay (Q96SW2 whole entry partner): as the sequence (Q96SW2 whole entry partner) above

[10] = Reduction in KLK3 gene expression in AR positive human 22Rv1 cells assessed as reduction in mRNA level at 10 nM measured after 6 hrs by qRT-PCT analysis relative to control; assay type: functional, CWR22R
[11] = biological target: T1, Protein cereblon/Histone acetyltransferase p300; experiment: PROTAC activity at p300/CRBN in AR positive human VCaP cells assessed as maximal protein degradation at 0.46 nM incubated for 4 hrs by Western blot analysis relative to control; assay type: cell-based
Target sequence in this assay (Q09472 2-2414 limits assumed): as the sequence (Q09472 2-2414 limits assumed) above
Target sequence in this assay (Q96SW2 whole entry partner): as the sequence (Q96SW2 whole entry partner) above

[12] = system: LNCaP; experiment: Reduction in KLK3 gene expression in AR positive human LNCaP cells assessed as reduction in mRNA level measured after 6 hrs by qRT-PCT analysis relative to control; assay type: functional, cell-based; details: dose 0.1-1000 nM
[13] = Reduction in c-Myc gene expression in AR positive human 22Rv1 cells assessed as reduction in mRNA level at 10 nM measured after 6 hrs by qRT-PCT analysis relative to control; assay type: functional, CWR22R
[14] = Toxicity in CB17 SCID mouse xenografted with human VCaP cells assessed as signs of toxicity at 0.3 to 1 mg/kg, po qd scheduled 5 days in a week measured on day 63; assay type: organism-based; details: in vivo, 120 h, dose 0.3-1 mg/kg, time 5 day
[15] = Half life in male ICR mouse at 3 mg/kg, po measured upto 24 hrs by LC-MS/MS analysis; assay type: ADME, organism-based; details: in vivo
[16] = system: CWR22R; experiment: Potency index, ratio of GNE-049 IC50 to test compound IC50 for antiproliferative activity against AR positive human 22Rv1 cells assessed inhibition of cell growth measured after 4 days by CellTiter-Glo Luminescent cell viability assay; assay type: functional; details: time 4 day
[17] = biological target: T2, Protein cereblon/CREB-binding protein; experiment: In vivo PROTAC activity at CBP/CRBN in human VCaP cells xenografted in SCID mouse assessed as reduction in CBP protein at 3 mg/kg, po measured after 3 hrs; assay type: functional, organism-based; set-up: scale not given: the % may be the effect or the level left
[18] = Plasma concentration in CB17 SCID mouse xenografted with human VCaP cells at 3 mg/kg, po measured after 24 hrs by LC-MS/MS analysis; assay type: ADME, organism-based
[19] = biological target: T2, Protein cereblon/CREB-binding protein; experiment: PROTAC activity at CBP/CRBN in AR positive human VCaP cells assessed as maximal protein degradation at 1000 nM incubated for 4 hrs by Western blot analysis relative to control; assay type: cell-based
[20] = biological target: T2, Protein cereblon/CREB-binding protein; experiment: PROTAC activity at CBP/CRBN in human 22Rv1 cells assessed as maximal protein degradation at 1 uM incubated for 4 hrs by Western blot analysis relative to control; assay type: cell-based
[21] = biological target: T1, Protein cereblon/Histone acetyltransferase p300; experiment: PROTAC activity at p300/CRBN in AR positive human VCaP cells assessed as maximal protein degradation at 1000 nM incubated for 4 hrs by Western blot analysis relative to control; assay type: cell-based
Target sequence in this assay (Q09472 2-2414 limits assumed): as the sequence (Q09472 2-2414 limits assumed) above
Target sequence in this assay (Q96SW2 whole entry partner): as the sequence (Q96SW2 whole entry partner) above

[22] = system: CWR22R; experiment: Antiproliferative activity against AR positive human 22Rv1 cells assessed inhibition of cell growth measured after 4 days by CellTiter-Glo Luminescent cell viability assay; assay type: functional, cell-based; details: 22Rv1, 96 h
[23] = biological target: T2, Protein cereblon/CREB-binding protein; experiment: PROTAC activity at CBP/CRBN in human LNCaP cells assessed as protein degradation incubated for 4 hrs by Western blot analysis; assay type: cell-based
[24] = system: VCaP; experiment: Potency index, ratio of ARV-110 IC50 to test compound IC50 for antiproliferative activity against AR positive human VCaP cells assessed inhibition of cell growth measured after 4 days by CellTiter-Glo Luminescent cell viability assay; assay type: functional; details: time 4 day
[25] = biological target: T1, Protein cereblon/Histone acetyltransferase p300; experiment: PROTAC activity at p300/CRBN in AR positive human VCaP cells assessed as maximal protein degradation at 12.3 nM incubated for 4 hrs by Western blot analysis relative to control; assay type: cell-based
Target sequence in this assay (Q09472 2-2414 limits assumed): as the sequence (Q09472 2-2414 limits assumed) above
Target sequence in this assay (Q96SW2 whole entry partner): as the sequence (Q96SW2 whole entry partner) above

[26] = system: VCaP; experiment: Reduction in AR gene expression in AR positive human VCaP cells assessed as reduction in mRNA level measured after 6 hrs by qRT-PCT analysis relative to control; assay type: functional, cell-based; details: dose 0.1-1000 nM
[27] = biological target: T1, Protein cereblon/Histone acetyltransferase p300; experiment: PROTAC activity at p300/CRBN in human VCaP cells assessed as protein degradation incubated for 4 hrs by Western blot analysis; assay type: cell-based
[28] = system: LNCaP; experiment: Reduction in AR gene expression in AR positive human LNCaP cells assessed as reduction in mRNA level measured after 6 hrs by qRT-PCT analysis relative to control; assay type: functional, cell-based; details: dose 0.1-1000 nM
[29] = Apparent permeability coefficient across basolateral to apical side in human Caco-2 cells at 10 uM incubated for 120 mins by LC-MS/MS analysis; assay type: ADME, cell-based; details: caco-2, 2 h
[30] = Plasma concentration in CB17 SCID mouse xenografted with human VCaP cells at 1 mg/kg, po measured after 24 hrs by LC-MS/MS analysis; assay type: ADME, organism-based
[31] = biological target: T2, Protein cereblon/CREB-binding protein; experiment: PROTAC activity at CBP/CRBN in AR positive human VCaP cells assessed as maximal protein degradation at 37 nM incubated for 4 hrs by Western blot analysis relative to control; assay type: cell-based
[32] = system: LNCaP; experiment: Potency index, ratio of GNE-049 IC50 to test compound IC50 for antiproliferative activity against AR positive human LNCaP cells assessed inhibition of cell growth measured after 4 days by CellTiter-Glo Luminescent cell viability assay; assay type: functional; details: time 4 day
[33] = Efflux ratio of apparent permeability coefficient across basolateral to apical side over apical to basolateral side in human Caco-2 cells at 10 uM incubated for 120 mins by LC-MS/MS analysis; assay type: ADME, cell-based; details: caco-2, 2 h
[34] = Volume of distribution at steady state in male ICR mouse at 1 mg/kg, iv measured upto 24 hrs by LC-MS/MS analysis; assay type: ADME, organism-based; details: in vivo, read-out: Vdss

With `CC(=O)N1CCc2c(c(N3CCCc4cc(-c5cnn(C)c5)c(C(F)F)cc43)nn2[C@H]2CC[C@H](CN3CCN(c4ccc5c(c4)C(=O)N(C4CCC(=O)NC4=O)C5=O)CC3)CC2)C1` (some centres undefined) the inhibition [1] was “Dose-Dependent Effect”, the Emax [2] was 91% and the concentration at 3 h [3] was 141 ng/mL. For the same compound, the Cmax [4] was 2490 ng/mL, the Activity [5] was greater than 95% and the half-life [6] was 2.8 h. It also gave an Activity [7] greater than 95%, an Activity [8] of 50% and an Emax [9] greater than 95%. The inhibition at 0.01 µM [10] was 75%, the Activity [11] was 80% and the inhibition [12] was “Dose-Dependent Effect”. For the same compound, the inhibition at 0.01 µM [13] was greater than 95%, the Activity [14] was “Non-Toxic” and the half-life [15] was 2.6 h. For the same compound, the “Ratio IC50” value [16] was 100, the Activity [17] was greater than 95% and the concentration at 24 h [18] was 21 ng/mL. It also gave an Activity [19] of 51%, an Emax [20] of 93% and an Activity [21] of 75%. For the same compound, the pIC50 [22] was 8.92, the DC50 [23] was 0.3 nM and the “Ratio IC50” value [24] was greater than 50. The Activity [25] was 100%, the inhibition [26] was “Dose-Dependent Effect” and the DC50 [27] was 0.2 nM. For the same compound, the inhibition [28] was “Dose-Dependent Effect”, the Papp [29] was 2.3 10^-6 cm/s and the concentration at 24 h [30] was 16 ng/mL. For the same compound, the Activity [31] was 98%, the “Ratio IC50” value [32] was 100 and the Ratio [33] was 1.2. The Vd [34] was 0.4 L/kg.
